According to ChEMBL document CHEMBL1128863, “6-Imino-1,3-oxazines: a new class of hepatoprotectants” (Bioorg Med Chem Lett, 1995):

Assays:
[1] = test system: Rattus norvegicus; assay: Hepatoprotective activity against bilirubin for thioacetamide-induced toxicity in rats at 6 mg/kg dose for 7 days by ip administration; type: functional
[2] = Hepatoprotective activity against glutamate oxaloacetate transaminase (GOT) for thioacetamide-induced toxicity in rats at 6 mg/kg dose for 7 days by ip administration; type: functional
[3] = target: T1, Alkaline phosphatase, tissue-nonspecific isozyme (Rattus norvegicus) (UniProt P08289); assay: (§1) Hepatoprotective activity against alkaline phosphatase (ALP) for thioacetamide-induced toxicity in rats at 6 mg/kg dose for 7 days by ip administration; type: functional, organism-based; parameters: dose 6 mg/kg
T1 sequence (whole entry): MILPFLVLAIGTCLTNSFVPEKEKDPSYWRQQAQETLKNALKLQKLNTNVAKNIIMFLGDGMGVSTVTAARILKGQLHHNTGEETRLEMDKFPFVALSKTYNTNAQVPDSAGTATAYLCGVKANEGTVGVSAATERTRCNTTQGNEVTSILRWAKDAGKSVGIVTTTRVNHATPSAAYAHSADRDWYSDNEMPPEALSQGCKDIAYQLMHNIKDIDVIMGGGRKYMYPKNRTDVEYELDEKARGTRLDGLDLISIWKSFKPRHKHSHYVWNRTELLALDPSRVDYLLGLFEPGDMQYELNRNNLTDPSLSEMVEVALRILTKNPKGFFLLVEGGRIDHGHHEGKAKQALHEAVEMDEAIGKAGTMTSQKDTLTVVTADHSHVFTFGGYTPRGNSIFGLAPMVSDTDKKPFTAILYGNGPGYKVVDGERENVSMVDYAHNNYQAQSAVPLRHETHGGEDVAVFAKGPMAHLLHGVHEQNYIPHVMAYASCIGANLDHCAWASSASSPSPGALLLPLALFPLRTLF

[4] = target: T2, Alanine aminotransferase 1 (Rattus norvegicus) (UniProt P25409); assay: (§2) Hepatoprotective activity against glutamate pyruvate transaminase (GTP) for thioacetamide-induced toxicity in rats at 6 mg/kg dose for 7 days by ip administration; type: functional, organism-based; parameters: dose 6 mg/kg
T2 sequence (whole entry): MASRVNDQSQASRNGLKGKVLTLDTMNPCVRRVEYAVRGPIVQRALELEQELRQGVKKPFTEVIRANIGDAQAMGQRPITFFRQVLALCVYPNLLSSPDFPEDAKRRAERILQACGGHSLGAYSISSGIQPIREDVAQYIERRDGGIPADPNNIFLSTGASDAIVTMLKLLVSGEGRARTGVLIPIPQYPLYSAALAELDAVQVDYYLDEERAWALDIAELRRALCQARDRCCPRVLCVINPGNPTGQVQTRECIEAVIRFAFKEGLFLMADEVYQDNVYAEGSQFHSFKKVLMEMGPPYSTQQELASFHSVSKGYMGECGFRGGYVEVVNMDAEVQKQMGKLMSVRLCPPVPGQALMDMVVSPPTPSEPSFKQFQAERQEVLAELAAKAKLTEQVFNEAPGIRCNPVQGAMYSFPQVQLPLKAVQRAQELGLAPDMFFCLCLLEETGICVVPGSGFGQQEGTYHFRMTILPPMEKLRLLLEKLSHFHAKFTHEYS

[5] = target: Alkaline phosphatase, tissue-nonspecific isozyme (Rattus norvegicus) (UniProt P08289); assay: as §1; type: functional, organism-based; parameters: dose 6 mg/kg; remark: listed apart in the source
[6] = target: Alanine aminotransferase 1 (Rattus norvegicus) (UniProt P25409); assay: as §2; type: functional, organism-based; parameters: dose 6 mg/kg; remark: listed apart in the source
[7] = test system: Rattus norvegicus; assay: Effective dose administered perorally in rats in various models of liver injuries; type: functional
[8] = Lethal dose administered perorally in rats in various models of liver injuries; type: toxicity; details: rat, in vivo, po

Compound | Protection ([1]; route intraperitoneal) | Protection ([2]; route intraperitoneal) | Protection [3] | Protection [4] | Protection [1] | Protection [2] | Protection [5] | Protection [6] | ED [7] | LD50 [8]
CSc1nc(-c2ccccc2)oc(=N)c1C#N | 19% | 26% | 30% | 19% |  |  |  |  |  | 
SILYMARIN |  |  |  |  | 61% | 50.1% | 47% | 47.2% |  | 
CCOC(=O)c1c(SC)nc(C)oc1=N | 11% | 26% | 36% | 29% |  |  |  |  |  | 
COc1ccn(C)c(=O)c1C#N [RICININE] |  |  |  |  |  |  |  |  | 6 mg/kg | 80 mg/kg
CCOC(=O)c1c(SC)nc(C(F)(F)F)oc1=N | 14% | 66% | 28% | 54% |  |  |  |  |  | 
CCOC(=O)c1c(SC)nc(-c2ccccc2)oc1=N | 33% | 33% | 41% | 39% |  |  |  |  |  | 
N#Cc1c(N)oc(-c2ccccc2)n/c1=N\N | 0% | 17% | 12% | 19% |  |  |  |  |  | 
